US20260373266A1, “PROTEIN DEGRADERS AND USES THEREOF” (KYMERA THERAPEUTICS, INC., priority 2022, published 2026)

target: T1, DCAF1 WD40 domain (residues 1077-1390) (Homo sapiens, UniProt Q9Y4B6); assay: DCAF1 binding assay by SPR (Biacore 8K+), DCAF1-3 KD; conditions: 25 °C, read-out: DCAF1-3 SPR (KD)
T1 construct: DCAF1 WD40 domain (residues 1077-1390)
T1 sequence (Q9Y4B6 1077-1390): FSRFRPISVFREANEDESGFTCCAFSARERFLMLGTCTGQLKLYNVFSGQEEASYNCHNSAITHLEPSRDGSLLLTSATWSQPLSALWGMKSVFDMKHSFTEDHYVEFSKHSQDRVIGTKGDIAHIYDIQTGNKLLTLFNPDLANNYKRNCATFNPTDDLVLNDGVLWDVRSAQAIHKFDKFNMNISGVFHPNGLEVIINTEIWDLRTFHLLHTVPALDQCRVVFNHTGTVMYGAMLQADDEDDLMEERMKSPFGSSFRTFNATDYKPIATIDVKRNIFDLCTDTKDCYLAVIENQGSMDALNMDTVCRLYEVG

`O=C(N[C@H](c1cccc(Cl)c1)[C@H]1CCNC1=O)c1c[nH]nc1-c1ccccc1F` [I-192] and `O=C(N[C@H](c1cccc(Cl)c1)[C@@H]1CCNC1=O)c1c[nH]nc1-c1ccccc1F` [I-193] cannot be ordered by Kd: > 200 µM for the first, > 200 µM for the second.

`O=C(N[C@H](c1cccc(Cl)c1)[C@H]1CCCNC1=O)c1c[nH]nc1-c1ccccc1F` [I-194] and `O=C(N[C@H](c1cccc(Cl)c1)[C@@H]1CCCNC1=O)c1c[nH]nc1-c1ccccc1F` [I-195] cannot be ordered by Kd: > 200 µM for the first, > 200 µM for the second.

Going from `Fc1cccc(N2CCC[C@@H](N3CCc4c(N5CCOCC5)ccnc43)C2)c1` [I-196] to `Fc1cccc(N2CCC[C@@H](N3CCCc4c(N5CCOCC5)ccnc43)C2)c1` [I-197], the Kd rises from < 10 µM to > 200 µM.

Compared with `Fc1cccc(N2CC[C@@H](Nc3cc(N4CCOCC4)ccn3)C2)c1` [I-198], `Fc1cccc(N2CC(Nc3cc(N4CCOCC4)ccn3)C2)c1` [I-199] is higher in Kd: 10 to 100 µM for the first, > 200 µM for the second.

`NC(=O)C[C@H](NC(=O)c1n[nH]nc1-c1ccccc1F)c1cccc(Cl)c1` [I-200] and `NC(=O)C[C@H](NC(=O)c1n[nH]nc1-c1ncccc1F)c1cccc(Cl)c1` [I-201] cannot be ordered by Kd: > 200 µM for the first, > 200 µM for the second.

`NC(=O)C[C@H](NC(=O)c1c[nH]nc1-c1ccccn1)c1cccc(Cl)c1` [I-202] and `NC(=O)C[C@H](NC(=O)c1c[nH]nc1-c1ccccc1Cl)c1cccc(Cl)c1` [I-210] cannot be ordered by Kd: > 200 µM for the first, > 200 µM for the second.

`NC(=O)[C@H]1CCN(C(=O)c2c[nH]nc2-c2ccccc2F)[C@@H]1c1cccc(Cl)c1` [I-203] and `NC(=O)[C@@H]1CCN(C(=O)c2c[nH]nc2-c2ccccc2F)[C@@H]1c1cccc(Cl)c1` [I-204] cannot be ordered by Kd: > 200 µM for the first, > 200 µM for the second.

`NC(=O)C[C@@]1(NC(=O)c2c[nH]nc2-c2ccccc2F)CCc2c(Cl)cccc21` [I-205] and `NC(=O)C[C@@]1(NC(=O)c2c[nH]nc2-c2ccccc2F)CCc2cc(Cl)ccc21` [I-242] cannot be ordered by Kd: > 200 µM for the first, > 200 µM for the second.

`NC(=O)C[C@H](NC(=O)c1c[nH]nc1-c1c(F)cccc1F)c1cccc(Cl)c1` [I-207] and `NC(=O)C[C@H](NC(=O)c1c[nH]nc1-c1cc(F)ccc1F)c1cccc(Cl)c1` [I-267] cannot be ordered by Kd: > 200 µM for the first, > 200 µM for the second.

`Cc1ccccc1-c1[nH]ncc1C(=O)N[C@@H](CC(N)=O)c1cccc(Cl)c1` [I-209] and `COc1ccc(F)c(-c2[nH]ncc2C(=O)N[C@@H](CC(N)=O)c2cccc(Cl)c2)c1` [I-249] cannot be ordered by Kd: > 200 µM for the first, > 200 µM for the second.

`C[C@@H](C(N)=O)[C@H](NC(=O)c1c[nH]nc1-c1ccccc1F)c1cccc(Cl)c1` [I-211] and `C[C@H](C(N)=O)[C@H](NC(=O)c1c[nH]nc1-c1ccccc1F)c1cccc(Cl)c1` [I-212] cannot be ordered by Kd: > 200 µM for the first, > 200 µM for the second.

`Fc1cccc(N2CCC[C@]3(Cc4cnc(N5CCOCC5)cc4N3)C2)c1` [I-213] and `Fc1cccc(N2CCC[C@]3(CCc4cnc(N5CCOCC5)cc4N3)C2)c1` [I-214] cannot be ordered by Kd: > 200 µM for the first, > 200 µM for the second.

`NC(=O)C[C@H](NC(=O)c1cc(=O)[nH]cc1-c1ccccc1F)c1cccc(Cl)c1` [I-215] and `NC(=O)C[C@H](NC(=O)c1c(-c2ccccc2F)cc[nH]c1=O)c1cccc(Cl)c1` [I-216] cannot be ordered by Kd: > 200 µM for the first, > 200 µM for the second.

`Fc1cccc(N2CC[C@@H](Nc3cc(N4CCOCC4)ncn3)C2)c1` [I-217] and `Fc1cccc(N2CCCC[C@@H](Nc3cc(N4CCOCC4)ncn3)C2)c1` [I-219] cannot be ordered by Kd: > 200 µM for the first, > 200 µM for the second.

`Fc1cccc(N2CC(Nc3cc(N4CCOCC4)ncn3)C2)c1` [I-218] and `C[C@H]1CC[C@@H](Nc2cc(N3CCOCC3)ncn2)CN1c1cccc(F)c1` [I-234] cannot be ordered by Kd: > 200 µM for the first, > 200 µM for the second.

`NC(=O)C[C@H](NC(=O)c1nc(N)[nH]c1-c1ccccc1F)c1cccc(Cl)c1` [I-220] and `Cc1[nH]nc(C(=O)N[C@@H](CC(N)=O)c2cccc(Cl)c2)c1-c1ccccc1F` [I-230] cannot be ordered by Kd: > 200 µM for the first, > 200 µM for the second.

`Fc1cccc(N2CCCC3(C2)CN(c2cc(N4CCOCC4)ccn2)C3)c1` [I-221] and `CC1(Nc2cc(N3CCOCC3)ccn2)CCCN(c2cccc(F)c2)C1` (stereo not drawn) [I-222] cannot be ordered by Kd: > 200 µM for the first, > 200 µM for the second.

`O=C1C[C@@H]([C@H](NC(=O)c2c[nH]nc2-c2ccccc2F)c2cccc(Cl)c2)CN1` [I-223] and `O=C(N[C@H](c1cccc(Cl)c1)c1ccon1)c1c[nH]nc1-c1ccccc1F` [I-232] cannot be ordered by Kd: > 200 µM for the first, > 200 µM for the second.

`Fc1cccc(N2CCNC(Cc3cc(N4CCOCC4)ccn3)C2)c1` (stereo not drawn) [I-224] and `Fc1cccc(N2CCNC(Cc3cc(N4CCOCC4)ncn3)C2)c1` (stereo not drawn) [I-225] cannot be ordered by Kd: > 200 µM for the first, > 200 µM for the second.

`Fc1cccc(N2CCC3CCCc4cnc(N5CCOCC5)cc4N[C@H]3C2)c1` (stereo partly drawn) [I-226] and `Fc1cccc(N2CCC3CCCc4ncc(N5CCOCC5)cc4N[C@H]3C2)c1` (stereo partly drawn) [I-227] cannot be ordered by Kd: > 200 µM for the first, > 200 µM for the second.

`Fc1cccc(N2CCC3CCCc4ncc(N5CCOCC5)cc4NC3C2)c1` (stereo not drawn) [I-228] and `Fc1cccc(N2CC[C@@H]3CCCc4ncc(N5CCOCC5)cc4N[C@H]3C2)c1` [I-245] cannot be ordered by Kd: > 200 µM for the first, > 200 µM for the second.

`NC(=O)C[C@H](NC(=O)c1c[nH]nc1-c1ccccc1O)c1cccc(Cl)c1` [I-229] and `NC(=O)C[C@H](NC(=O)c1c[nH]nc1-c1cccc2cc[nH]c12)c1cccc(Cl)c1` [I-235] cannot be ordered by Kd: > 200 µM for the first, > 200 µM for the second.

`O=C(N[C@@H](c1cnoc1)c1cccc(Cl)c1)c1c[nH]nc1-c1ccccc1F` [I-233] and `NC(=O)C[C@](CO)(NC(=O)c1c[nH]nc1-c1ccccc1F)c1cccc(Cl)c1` [I-253] cannot be ordered by Kd: > 200 µM for the first, > 200 µM for the second.

`NC(=O)C[C@H](NC(=O)c1c[nH]nc1-c1cccc2ccnn12)c1cccc(Cl)c1` [I-236] and `NC(=O)C[C@H](NC(=O)c1c[nH]nc1-c1cccc2ncnn12)c1cccc(Cl)c1` [I-237] cannot be ordered by Kd: > 200 µM for the first, > 200 µM for the second.

`NC(=O)C[C@H](NC(=O)c1c[nH]nc1-c1cc(=O)[nH]cn1)c1cccc(Cl)c1` [I-238] and `NC(=O)C[C@H](NC(=O)c1c[nH]nc1-c1ccc2[nH]cnc2c1)c1cccc(Cl)c1` [I-240] cannot be ordered by Kd: > 200 µM for the first, > 200 µM for the second.

`NC(=O)C[C@H](NC(=O)c1c[nH]nc1-c1cccc2nc[nH]c12)c1cccc(Cl)c1` [I-239] and `NC(=O)C[C@H](NC(=O)c1c[nH]nc1-c1cc(C(=O)O)ccc1F)c1cccc(Cl)c1` [I-269] cannot be ordered by Kd: > 200 µM for the first, > 200 µM for the second.

`NC(=O)C[C@@]1(NC(=O)c2c[nH]nc2-c2ccccc2F)CCCc2cc(Cl)ccc21` [I-241] and `NC(=O)C[C@@]1(NC(=O)c2c[nH]nc2-c2ccccc2F)CCCc2ccc(Cl)cc21` [I-243] cannot be ordered by Kd: > 200 µM for the first, > 200 µM for the second.

`CS(=O)(=O)Cc1ccc(F)c(-c2[nH]ncc2C(=O)N[C@@H](CC(N)=O)c2cccc(Cl)c2)c1` [I-246] and `CS(=O)(=O)CCc1ccc(F)c(-c2[nH]ncc2C(=O)N[C@@H](CC(N)=O)c2cccc(Cl)c2)c1` [I-247] cannot be ordered by Kd: > 200 µM for the first, > 200 µM for the second.

`COCc1ccc(F)c(-c2[nH]ncc2C(=O)N[C@@H](CC(N)=O)c2cccc(Cl)c2)c1` [I-248] and `COCCc1ccc(F)c(-c2[nH]ncc2C(=O)N[C@@H](CC(N)=O)c2cccc(Cl)c2)c1` [I-250] fall in the same range of Kd: 10 to 100 µM for the first, 10 to 100 µM for the second.

`NC(=O)C[C@H](NC(=O)c1cn[nH]c1-c1cc(CC(F)F)ccc1F)c1cccc(Cl)c1` [I-251] and `COC(=O)c1ccc(F)c(-c2n[nH]cc2C(=O)N[C@@H](CC(N)=O)c2cccc(Cl)c2)c1` [I-270] cannot be ordered by Kd: > 200 µM for the first, > 200 µM for the second.

`NC(=O)C[C@H](NS(=O)(=O)c1c[nH]nc1-c1ccccc1F)c1cccc(Cl)c1` [I-252] and `NC(=O)C[C@](NC(=O)c1c[nH]nc1-c1ccccc1F)(c1cccc(Cl)c1)C1CC1` [I-254] cannot be ordered by Kd: > 200 µM for the first, > 200 µM for the second.

`NC(=O)C[C@](CC1CC1)(NC(=O)c1c[nH]nc1-c1ccccc1F)c1cccc(Cl)c1` [I-255] and `COC[C@@](CC(N)=O)(NC(=O)c1c[nH]nc1-c1ccccc1F)c1cccc(Cl)c1` [I-265] cannot be ordered by Kd: > 200 µM for the first, > 200 µM for the second.

`NC(=O)C[C@@](NC(=O)c1c[nH]nc1-c1ccccc1F)(c1ccccc1)c1cccc(Cl)c1` [I-256] and `Cn1nnnc1-c1ccc(F)c(-c2n[nH]cc2C(=O)N[C@@H](CC(N)=O)c2cccc(Cl)c2)c1` [I-268] cannot be ordered by Kd: > 200 µM for the first, > 200 µM for the second.

`Fc1cccc(N2CCC[C@@H](N(CC(F)F)c3cc(N4CCOCC4)ccn3)C2)c1` [I-257] and `NC(=O)CN(c1cc(N2CCOCC2)ccn1)[C@@H]1CCCN(c2cccc(F)c2)C1` [I-272] cannot be ordered by Kd: > 200 µM for the first, > 200 µM for the second.

`CS(=O)(=O)CN(c1cc(N2CCOCC2)ccn1)[C@@H]1CCCN(c2cccc(F)c2)C1` [I-258] and `CC(=O)N(c1cc(N2CCOCC2)ccn1)[C@@H]1CCCN(c2cccc(F)c2)C1` [I-271] cannot be ordered by Kd: > 200 µM for the first, > 200 µM for the second.

`Fc1cccc(N2CCCC(C3(c4cc(N5CCOCC5)ccn4)CC3)C2)c1` (stereo not drawn) [I-259] and `Fc1cccc(N2CCCC(C3(c4cc(N5CCOCC5)ccn4)CC3(F)F)C2)c1` (stereo not drawn) [I-261] cannot be ordered by Kd: > 200 µM for the first, > 200 µM for the second.

`Fc1cccc(N2CCC[C@@H](Nc3cc(N4CCOCC4)ccn3)C2F)c1` (stereo partly drawn) [I-260] and `OC[C@@H]1[C@H](Nc2cc(N3CCOCC3)ccn2)CCCN1c1cccc(F)c1` [I-279] cannot be ordered by Kd: > 200 µM for the first, > 200 µM for the second.

`COC(C)(c1cc(N2CCOCC2)ccn1)C1CCCN(c2cccc(F)c2)C1` (stereo not drawn) [I-262] and `CC(F)(c1cc(N2CCOCC2)ccn1)C1CCCN(c2cccc(F)c2)C1` (stereo not drawn) [I-266] cannot be ordered by Kd: > 200 µM for the first, > 200 µM for the second.

`CC(c1cc(N2CCOCC2)ccn1)(C1CCCN(c2cccc(F)c2)C1)C(F)(F)F` (stereo not drawn) [I-263] and `O=S(=O)(c1cc(N2CCOCC2)ccn1)C1CCCN(c2cccc(F)c2)C1` (stereo not drawn) [I-264] cannot be ordered by Kd: > 200 µM for the first, > 200 µM for the second.

`Fc1cccc(N2CCC[C@@H](N(c3ccccc3)c3cc(N4CCOCC4)ccn3)C2)c1` [I-273] and `O=C1[C@H](Nc2cc(N3CCOCC3)ccn2)CCCN1c1cccc(F)c1` [I-281] cannot be ordered by Kd: > 200 µM for the first, > 200 µM for the second.

First: O[C@@H]1C[C@@H](Nc2cc(N3CCOCC3)ccn2)CN(c2cccc(F)c2)C1 [I-274]
Second: Fc1cccc(N2C[C@H](F)C[C@@H](Nc3cc(N4CCOCC4)ccn3)C2)c1 [I-275]
The Kd of the first is lower: 10 to 100 µM for the first, > 200 µM for the second. The first binds more tightly here.

`OC[C@@]1(Nc2cc(N3CCOCC3)ccn2)CCCN(c2cccc(F)c2)C1` [I-276] and `FC[C@@]1(Nc2cc(N3CCOCC3)ccn2)CCCN(c2cccc(F)c2)C1` [I-277] cannot be ordered by Kd: > 200 µM for the first, > 200 µM for the second.

`NC(=O)[C@@H]1[C@H](Nc2cc(N3CCOCC3)ccn2)CCCN1c1cccc(F)c1` [I-278] and `O=S1(=O)[C@H](Nc2cc(N3CCOCC3)ccn2)CCCN1c1cccc(F)c1` [I-282] cannot be ordered by Kd: > 200 µM for the first, > 200 µM for the second.

In the case of `Fc1cccc(N2CCC[C@@H](Nc3cc(N4CCOCC4)ccn3)C23COC3)c1` [I-280], the Kd is reported as > 200 µM.
